Experimental data reported in patent publication US11214803B2, “Modulators of YAP1 expression” (Ionis Pharmaceuticals, Inc., priority 2019, dated 2022).
Strand notation (5' to 3'): a small letter for the sugar, then the base; units joined by * are phosphorothioate-linked, units joined directly phosphodiester-linked; [ ] holds rarer units or linkages, { } end groups; capitals alone tell only the bases. k = constrained ethyl (cEt); [5mC] = 5-methylcytosine; d = 2'-deoxy (DNA)

Tested on: Yap1 mRNA
Test: Antisense inhibition of human Yap1 in A-431 cells by cEt gapmers, single dose (Example 2, RTS4814)
Assay type: cell-based
In short: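 Single-dose knockdown screen of 3-10-3 cEt phosphorothioate gapmers at 2,000 nM added by free uptake to A-431 cells. After roughly 48 h, RNA was isolated and Yap1 transcript measured by RT-qPCR, with results given as % UTC.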

[1] = Table 21, Yap1 mRNA, percent of untreated control, 3-10-3 cEt gapmers targeting SEQ ID NO.: 1 and 2
[2] = Yap1 mRNA as percent of untreated control, A-431 cells, 3-10-3 cEt gapmers targeting SEQ ID NO.: 1, and 2, Table 30
[3] = Table 6, A-431 cells, 5,000 cells per well, free uptake, 2,000 nM modified oligonucleotide, approx. 48 hours, RTS4814, normalized to RIBOGREEN, Yap1 mRNA relative to untreated control cells
[4] = Table 33, Yap1 mRNA, percent of untreated control, 3-10-3 cEt gapmers targeting SEQ ID NO.: 1, and 2
[5] = Table 25, Yap1 mRNA as percent of untreated control, 3-10-3 cEt gapmers targeting SEQ ID NO.: 1, and 2
[6] = Table 32, Yap1 mRNA, percent of untreated control, 3-10-3 cEt gapmers targeting SEQ ID NO.: 1, and 2
[7] = Yap1 mRNA as percent of untreated control, A-431 cells, 3-10-3 cEt gapmers targeting SEQ ID NO.: 1, and 2, Table 31
[8] = A-431 cells, 5,000 cells per well, free uptake, 2,000 nM modified oligonucleotide, approx. 48 hours, RTS4814, normalized to RIBOGREEN, Table 4, asterisk (*) = targets amplicon region of primer probe set
[9] = Table 19, A-431 cells, 5,000 cells per well, free uptake, 2,000 nM modified oligonucleotide, approx. 48 hours, RTS4814, normalized to RIBOGREEN, Yap1 mRNA as percent of untreated control
[10] = Table 23, Yap1 mRNA as percent of untreated control, 3-10-3 cEt gapmers, single dose
[11] = Table 22, Yap1 mRNA as percent of untreated control, 3-10-3 cEt gapmers, single dose
[12] = Table 24, Yap1 mRNA as percent of untreated control, 3-10-3 cEt gapmers targeting SEQ ID NO.: 1, and 2

With “1074183 (antisense k[5mC]*k[5mC]*kG*dG*dT*dT*dG*dA*dG*dG*d[5mC]*dG*dG*k[5mC]*kG*kG) [Compound 1074183]” the “YAP1 (% UTC)” value [1] was 90 % UTC.

“1074832 (kG*k[5mC]*kG*dA*dG*dG*dA*dT*dA*dA*dA*dA*dT*k[5mC]*k[5mC]*kA; antisense) [compound 1074832]” was tested, and the “YAP1 (% UTC)” value [2] was 17 % UTC.

For “716414 (kG*kT*kT*d[5mC]*dA*dT*dT*d[5mC]*d[5mC]*dA*dT*d[5mC]*dT*k[5mC]*k[5mC]*kT; antisense) [Compound 716414]”, the “YAP1 (% UTC)” value [3] was 59 % UTC.

With “716573 (kA*kG*kT*dT*dA*d[5mC]*dT*dA*d[5mC]*dT*dG*dT*dA*kA*kT*k[5mC]; antisense) [Compound 716573]” the “YAP1 (% UTC)” value [3] was 116 % UTC.

For “1076016 (kT*kA*kA*dT*dA*dG*dG*dA*dT*dG*dG*dA*dT*kT*k[5mC]*kT; antisense) [compound 1076016]”, the “YAP1 (% UTC)” value [2] was 8 % UTC.

With “1075667 (antisense k[5mC]*kA*kA*dA*dT*dT*dT*dA*dG*dT*dT*dG*dT*kG*k[5mC]*kA) [compound 1075667]” the “YAP1 (% UTC)” value [4] was 109 % UTC.

“1074955 (antisense k[5mC]*k[5mC]*k[5mC]*dG*dG*dG*dT*dT*dT*dT*dT*dG*dT*k[5mC]*kA*kT) [Compound 1074955]” was tested, and the “YAP1 (% UTC)” value [5] was 93 % UTC.

For “1075602 (antisense kT*kA*kT*dT*dA*dT*dA*dA*dG*dT*d[5mC]*dT*dA*k[5mC]*kA*kA) [compound 1075602]”, the “YAP1 (% UTC)” value [6] was 114 % UTC.

“1075185 (kG*k[5mC]*k[5mC]*d[5mC]*dA*dA*dG*dA*dA*d[5mC]*dA*d[5mC]*dT*kG*kG*kT; antisense) [compound 1075185]” was tested, and the “YAP1 (% UTC)” value [7] was 78 % UTC.

For “716574 (kT*kA*k[5mC]*dA*d[5mC]*dT*dG*dT*dA*dT*dA*dT*dG*kT*kT*k[5mC]; antisense) [Compound 716574]”, the “YAP1 (% UTC)” value [8] was 91 % UTC.

“716378 (kG*k[5mC]*kA*dG*dA*dG*dG*dT*dA*d[5mC]*dA*dT*d[5mC]*kA*kT*k[5mC]; antisense) [Compound 716378]” was tested, and the “YAP1 (% UTC)” value [3] was 44 % UTC.

In the case of “1075569 (kG*kT*kA*dG*dA*dA*dA*dG*dG*d[5mC]*dA*dT*dT*kA*kG*kA; antisense) [compound 1075569]”, the “YAP1 (% UTC)” value [7] is reported as 45 % UTC.

In the case of “1074469 (k[5mC]*k[5mC]*k[5mC]*dA*d[5mC]*d[5mC]*dG*dA*d[5mC]*d[5mC]*d[5mC]*dT*dG*k[5mC]*k[5mC]*kA; antisense) [Compound 1074469]”, the “YAP1 (% UTC)” value [9] is reported as 77 % UTC.

“1075347 (antisense k[5mC]*kA*kT*dA*dG*dG*dT*dA*dG*dG*d[5mC]*dA*dA*k[5mC]*kA*kA) [compound 1075347]” was tested, and the “YAP1 (% UTC)” value [4] was 20 % UTC.

With “1075465 (antisense kG*kA*kT*dT*dT*dA*dT*dT*dG*dA*dA*d[5mC]*dT*kG*kA*kG) [Compound 1075465]” the “YAP1 (% UTC)” value [10] was 7 % UTC.

For “1075250 (kA*kA*kT*dT*dA*d[5mC]*dG*dA*dT*dT*dA*dG*dA*kT*k[5mC]*kA; antisense) [compound 1075250]”, the “YAP1 (% UTC)” value [6] was 55 % UTC.

For “1075591 (kG*kT*kA*dA*dT*dA*dA*dT*d[5mC]*dA*d[5mC]*d[5mC]*dT*kT*kA*k[5mC]; antisense) [Compound 1075591]”, the “YAP1 (% UTC)” value [1] was 76 % UTC.

“1075529 (kA*kA*kA*dT*d[5mC]*dG*dA*dA*dG*dG*dG*d[5mC]*dA*kA*kA*k[5mC]; antisense) [Compound 1075529]” was tested, and the “YAP1 (% UTC)” value [10] was 84 % UTC.

“1076038 (kA*kG*kG*d[5mC]*dA*dA*dG*dA*dA*dT*dT*dG*dG*kG*kT*kA; antisense) [Compound 1076038]” was tested, and the “YAP1 (% UTC)” value (Table 20, Yap1 mRNA, percent of untreated control, 3-10-3 cEt gapmers targeting SEQ ID NO.: 1 and 2) was 11 % UTC.

In the case of “716375 (kG*kA*kG*dA*d[5mC]*dT*dA*d[5mC]*dT*d[5mC]*d[5mC]*dA*dG*kT*kG*kG; antisense) [Compound 716375]”, the “YAP1 (% UTC)” value [3] is reported as 63 % UTC.

For “1075913 (k[5mC]*k[5mC]*k[5mC]*d[5mC]*dT*dA*dT*dA*d[5mC]*dT*dT*dT*dT*kT*kG*kA; antisense) [Compound 1075913]”, the “YAP1 (% UTC)” value [10] was 46 % UTC.

In the case of “1074568 (antisense kG*kA*kA*d[5mC]*d[5mC]*dT*dA*d[5mC]*dT*d[5mC]*dA*d[5mC]*dT*kG*kA*kA) [Compound 1074568]”, the “YAP1 (% UTC)” value [11] is reported as 12 % UTC.

In the case of “1074281 (antisense kG*kA*kG*dG*dG*dT*d[5mC]*dA*dA*dG*d[5mC]*d[5mC]*dT*kT*kG*kG) [Compound 1074281]”, the “YAP1 (% UTC)” value [10] is reported as 91 % UTC.

“1074219 (antisense kA*kG*kT*d[5mC]*dA*dG*dG*dG*d[5mC]*dT*d[5mC]*d[5mC]*dT*kG*k[5mC]*kA) [Compound 1074219]” was tested, and the “YAP1 (% UTC)” value [5] was 30 % UTC.

With “1075304 (k[5mC]*kA*k[5mC]*dG*dG*dG*dT*dA*d[5mC]*d[5mC]*dA*dG*dA*kA*kA*kA; antisense) [Compound 1075304]” the “YAP1 (% UTC)” value [11] was 50 % UTC.

For “1075793 (k[5mC]*kA*kT*dT*dA*dG*dT*dT*dG*d[5mC]*d[5mC]*d[5mC]*dT*kG*kA*k[5mC]; antisense) [compound 1075793]”, the “YAP1 (% UTC)” value [7] was 31 % UTC.

For “716374 (kG*kG*kT*d[5mC]*dA*dG*dT*dG*dT*d[5mC]*d[5mC]*d[5mC]*dA*kG*kG*kA; antisense) [Compound 716374]”, the “YAP1 (% UTC)” value (Table 5, A-431 cells, 5,000 cells per well, free uptake, 2,000 nM modified oligonucleotide, approx. 48 hours, RTS4814, normalized to RIBOGREEN, Yap1 mRNA relative to untreated control cells) was 54 % UTC.

With “1076266 (kA*kT*kT*dA*dT*dT*dA*d[5mC]*d[5mC]*d[5mC]*dA*dA*dT*kA*kA*k[5mC]; antisense) [Compound 1076266]” the “YAP1 (% UTC)” value [12] was 72 % UTC.

With “1075877 (k[5mC]*kT*kG*dG*dA*dA*dA*dA*dG*dT*dA*d[5mC]*dA*kT*kT*k[5mC]; antisense) [Compound 1075877]” the “YAP1 (% UTC)” value [9] was 28 % UTC.

In the case of “1074567 (antisense kA*kA*k[5mC]*d[5mC]*dT*dA*d[5mC]*dT*d[5mC]*dA*d[5mC]*dT*dG*kA*kA*kT) [Compound 1074567]”, the “YAP1 (% UTC)” value [1] is reported as 38 % UTC.

“1075184 (k[5mC]*kA*kA*dG*dA*dA*d[5mC]*dA*d[5mC]*dT*dG*dG*dT*kA*kT*kT; antisense) [compound 1075184]” was tested, and the “YAP1 (% UTC)” value [2] was 67 % UTC.

For “1075719 (k[5mC]*kT*kA*dA*dA*dA*d[5mC]*d[5mC]*dG*dG*d[5mC]*dT*dG*kG*kA*k[5mC]; antisense) [Compound 1075719]”, the “YAP1 (% UTC)” value [1] was 76 % UTC.

For “1074889 (antisense kA*kG*kT*dT*dT*dA*dG*d[5mC]*d[5mC]*dT*dG*dA*dA*kG*k[5mC]*kA) [Compound 1074889]”, the “YAP1 (% UTC)” value [10] was 42 % UTC.

With “1074532 (antisense kG*kA*kA*d[5mC]*dA*d[5mC]*dT*dA*dA*dA*d[5mC]*dT*dA*k[5mC]*kT*kT) [Compound 1074532]” the “YAP1 (% UTC)” value (Table 18, A-431 cells, 5,000 cells per well, free uptake, 2,000 nM modified oligonucleotide, approx. 48 hours, RTS4814, normalized to RIBOGREEN, Yap1 mRNA as percent of untreated control) was 59 % UTC.

“716421 (kT*kA*kT*dT*dA*dG*d[5mC]*d[5mC]*dT*dG*dA*dA*dA*kA*k[5mC]*kT; antisense) [Compound 716421]” was tested, and the “YAP1 (% UTC)” value [8] was 86 % UTC.

“1074379 (antisense kT*kG*kG*dG*dA*dA*dA*d[5mC]*dG*dG*dT*dT*d[5mC]*kT*kG*k[5mC]) [Compound 1074379]” was tested, and the “YAP1 (% UTC)” value [5] was 20 % UTC.

In the case of “1075856 (antisense k[5mC]*k[5mC]*kT*dA*dA*dT*d[5mC]*dA*dA*dG*dT*dT*d[5mC]*kT*kG*k[5mC]) [compound 1075856]”, the “YAP1 (% UTC)” value [2] is reported as 40 % UTC.

“1074506 (kT*kA*kA*dT*d[5mC]*dG*dA*dG*dA*dT*dT*dT*dA*kA*kA*kT; antisense) [Compound 1074506]” was tested, and the “YAP1 (% UTC)” value [12] was 107 % UTC.

For “1076554 (antisense kT*kG*kG*dG*dA*dA*dT*dA*dG*dT*dG*dA*dA*kT*kT*kT) [Compound 1076554]”, the “YAP1 (% UTC)” value [12] was 30 % UTC.

With “1074354 (antisense kG*kG*kA*d[5mC]*dA*d[5mC]*dT*dG*dT*dA*dG*d[5mC]*dT*kG*k[5mC]*kT) [compound 1074354]” the “YAP1 (% UTC)” value [6] was 24 % UTC.
